In US20250059183A1, “PYRIDINE[4,3-D]PYRIMIDINE COMPOUND AS TLR7/8 AGONIST” (SHANGHAI VISONPHARMA CO., LTD., priority 2021, published 2025):

Assays:
human TLR7 = biological target: T1, human TLR7 (Homo sapiens, UniProt Q9NYK1); experiment: HEK-Blue hTLR7 SEAP reporter gene agonist assay; format: cell-based; conditions: HEK-Blue hTLR7 cells, 16 to 22 hours incubation
T1 construct: host or cells: HEK-Blue hTLR7 (HEK293-derived reporter cells)
T1 sequence (Q9NYK1 27-1049): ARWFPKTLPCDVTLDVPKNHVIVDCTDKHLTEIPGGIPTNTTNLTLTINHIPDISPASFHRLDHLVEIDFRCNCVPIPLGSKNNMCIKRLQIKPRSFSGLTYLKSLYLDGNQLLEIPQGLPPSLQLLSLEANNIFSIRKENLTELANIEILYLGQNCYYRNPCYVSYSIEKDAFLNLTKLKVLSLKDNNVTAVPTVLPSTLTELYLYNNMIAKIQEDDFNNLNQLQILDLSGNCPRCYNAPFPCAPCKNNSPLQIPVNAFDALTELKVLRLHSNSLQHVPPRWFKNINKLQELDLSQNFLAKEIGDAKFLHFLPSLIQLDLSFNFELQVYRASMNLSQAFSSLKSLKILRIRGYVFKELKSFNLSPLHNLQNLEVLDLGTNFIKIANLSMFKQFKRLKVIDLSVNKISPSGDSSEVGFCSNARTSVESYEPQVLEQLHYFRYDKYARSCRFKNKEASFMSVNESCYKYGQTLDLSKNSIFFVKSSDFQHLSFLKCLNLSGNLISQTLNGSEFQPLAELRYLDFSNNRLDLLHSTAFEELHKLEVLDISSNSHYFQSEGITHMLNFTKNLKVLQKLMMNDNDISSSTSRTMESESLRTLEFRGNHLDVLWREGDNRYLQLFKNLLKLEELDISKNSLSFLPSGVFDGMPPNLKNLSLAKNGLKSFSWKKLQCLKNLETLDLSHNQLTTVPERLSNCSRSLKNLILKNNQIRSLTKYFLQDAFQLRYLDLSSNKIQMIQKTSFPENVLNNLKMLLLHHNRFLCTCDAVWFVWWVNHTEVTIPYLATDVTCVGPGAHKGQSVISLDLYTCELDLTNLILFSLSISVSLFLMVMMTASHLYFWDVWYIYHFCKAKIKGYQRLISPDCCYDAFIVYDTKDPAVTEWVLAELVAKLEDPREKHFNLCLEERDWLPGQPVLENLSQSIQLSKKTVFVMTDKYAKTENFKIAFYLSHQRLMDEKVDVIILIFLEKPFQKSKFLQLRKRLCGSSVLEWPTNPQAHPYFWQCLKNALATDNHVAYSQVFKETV
Summary of the method: (§1)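 HEK-Blue cells stably expressing human TLR7 or TLR8 carry a SEAP reporter driven by a minimal IFN-β promoter fused to 5×NF-κB and AP-1 sites. Compounds at […] final, 16 to 22 h. SEAP in the medium measured with Quanti-blue at OD650, and EC50 derived.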

human TLR8 = biological target: T2, human TLR8 (Homo sapiens, UniProt Q9NR97); experiment: HEK-Blue hTLR8 SEAP reporter gene agonist assay; format: cell-based; conditions: HEK-Blue hTLR8 cells, 16 to 22 hours incubation
T2 construct: host or cells: HEK-Blue hTLR8 (HEK293-derived reporter cells)
T2 sequence (Q9NR97 27-1041): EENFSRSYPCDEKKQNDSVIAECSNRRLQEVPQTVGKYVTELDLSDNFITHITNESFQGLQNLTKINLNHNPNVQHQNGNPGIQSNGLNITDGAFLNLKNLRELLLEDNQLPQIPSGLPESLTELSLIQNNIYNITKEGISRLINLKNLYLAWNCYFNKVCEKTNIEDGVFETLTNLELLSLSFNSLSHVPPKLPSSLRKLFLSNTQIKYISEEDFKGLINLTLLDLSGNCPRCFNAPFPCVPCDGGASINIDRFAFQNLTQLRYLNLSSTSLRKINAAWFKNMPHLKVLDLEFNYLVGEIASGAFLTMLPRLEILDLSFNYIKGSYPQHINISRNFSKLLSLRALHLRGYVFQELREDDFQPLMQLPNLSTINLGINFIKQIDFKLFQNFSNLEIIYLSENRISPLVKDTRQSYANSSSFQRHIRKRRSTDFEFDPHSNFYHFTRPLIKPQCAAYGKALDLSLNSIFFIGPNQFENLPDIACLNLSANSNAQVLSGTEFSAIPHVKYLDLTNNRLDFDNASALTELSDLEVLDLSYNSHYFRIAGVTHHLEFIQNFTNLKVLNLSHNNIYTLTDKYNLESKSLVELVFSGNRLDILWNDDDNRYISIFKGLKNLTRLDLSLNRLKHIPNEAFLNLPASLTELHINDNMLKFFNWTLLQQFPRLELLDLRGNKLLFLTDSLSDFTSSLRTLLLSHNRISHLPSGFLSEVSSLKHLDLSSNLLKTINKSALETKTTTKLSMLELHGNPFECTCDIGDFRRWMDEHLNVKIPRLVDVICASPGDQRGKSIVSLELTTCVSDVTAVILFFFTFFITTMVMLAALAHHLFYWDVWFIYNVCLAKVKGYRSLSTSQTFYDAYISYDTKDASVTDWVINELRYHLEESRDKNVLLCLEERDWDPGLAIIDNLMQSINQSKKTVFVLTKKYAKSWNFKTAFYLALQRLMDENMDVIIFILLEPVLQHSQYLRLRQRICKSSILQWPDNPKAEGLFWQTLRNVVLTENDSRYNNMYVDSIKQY
Summary of the method: as §1

Row | Compound | EC50 (human TLR7) [nM] | EC50 (human TLR8) [nM]
1 | CCC[C@@H](CC)Nc1nc(N)nc2ccn(Cc3ccc(CN4CCCC4)cc3)c(=O)c12 [Compound I-138, (R)-2-amino-4-(hexan-3-ylamino)-6-(4-(pyrrolidin-1-ylmethyl)benzyl)pyrido[4,3-d]pyrimidin-5(6H)-one] | 58 | 97
2 | CCC[C@@H](CO)Nc1nc(N)nc2ccn(Cc3ccc(CNC)cc3OC)c(=O)c12 [Compound I-214, (S)-2-amino-4-((1-hydroxypentan-2-yl)amino)-6-(2-methoxy-4-((methylamino)methyl)benzyl)pyrido[4,3-d]pyrimidin-5(6H)-one] | 86 | 3
3 | CCC[C@@H](CO)Nc1nc(N)nc2ccn(Cc3ccc(C(=O)N4CCN(C)CC4)cc3OC)c(=O)c12 [Compound I-212, (S)-2-amino-4-((1-hydroxypentan-2-yl)amino)-6-(2-methoxy-4-(4-methylpiperazine-1-carbonyl)benzyl)pyrido[4,3-d]pyrimidin-5(6H)-one] | 60 | 4
4 | CCCCNc1nc(N)nc2ccn(Cc3ccc(CN4CCCC4)cc3F)c(=O)c12 [Compound I-51, 2-amino-4-(butylamino)-6-(2-fluoro-4-(pyrrolidin-1-ylmethyl)benzyl)pyrido[4,3-d]pyrimidin-5(6H)-one] | 98 | 88
5 | CCC[C@@H](C)Nc1nc(N)nc2ccn(Cc3ccc(CN4CCCC4)cc3)c(=O)c12 [Compound I-103, (R)-2-amino-4-(pentan-2-ylamino)-6-(4-(pyrrolidin-1-ylmethyl)benzyl)pyrido[4,3-d]pyrimidin-5(6H)-one] | 64 | 47
6 | CCCC(CCOC(=O)C(F)(F)F)Nc1nc(N)nc2ccn(Cc3ccc(CN4CCCC4)cc3)c(=O)c12 (stereo not shown) [Compound I-96, 3-((2-amino-5-oxo-6-(4-(pyrrolidin-1-ylmethyl)benzyl)-5,6-dihydropyrido[4,3-d]pyrimidin-4-yl)amino)hexyl 2,2,2-trifluoroacetate] | 50 | 31
7 | CCC[C@@H](CO)Nc1nc(N)nc2ccn(Cc3ccc(CN4CCCC4)cc3)c(=O)c12 [Compound I-127, (S)-2-amino-4-((1-hydroxypentan-2-yl)amino)-6-(4-(pyrrolidin-1-ylmethyl)benzyl)pyrido[4,3-d]pyrimidin-5(6H)-one] | 44 | 3
8 | CCC[C@@H](C)Nc1nc(N)nc2ccn(Cc3ccc(OCCNC)nc3)c(=O)c12 [Compound I-153, (R)-2-amino-6-((6-(2-(methylamino)ethoxy)pyridin-3-yl)methyl)-4-(pentan-2-ylamino)pyrido[4,3-d]pyrimidin-5(6H)-one] | 90 | 40
9 | CCCCNc1nc(N)nc2cc(C)n(Cc3ccc(CN4CCCC4)cc3)c(=O)c12 [Compound I-187, 2-amino-4-(butylamino)-7-methyl-6-(4-(pyrrolidin-1-ylmethyl)benzyl)pyrido[4,3-d]pyrimidin-5(6H)-one] | 145 | 64
10 | CCCCNc1nc(N)nc2ccn(Cc3ccc(C(=O)N4CCN(C(C)C)CC4)cc3)c(=O)c12 [Compound I-53, 2-amino-4-(butylamino)-6-(4-(4-isopropylpiperazine-1-carbonyl)benzyl)pyrido[4,3-d]pyrimidin-5(6H)-one] | 61 | 92
11 | CCC[C@@H](CO)Nc1nc(N)nc2ccn(Cc3ccc(CN4CCN(C)CC4)cc3OC)c(=O)c12 [Compound I-162, (S)-2-amino-4-((1-hydroxypentan-2-yl)amino)-6-(2-methoxy-4-((4-methylpiperazin-1-yl)methyl)benzyl)pyrido[4,3-d]pyrimidin-5(6H)-one] | 20 | 10
12 | CCC[C@@H](C)Nc1nc(N)nc2ccn(Cc3ccc(C(=O)N4CCN(CCO)CC4)cc3OC)c(=O)c12 [Compound I-123, (R)-2-amino-6-(4-(4-(2-hydroxyethyl)piperazine-1-carbonyl)-2-methoxybenzyl)-4-(pentan-2-ylamino)pyrido[4,3-d]pyrimidin-5(6H)-one] | 23 | 34

The remaining compounds from weak to strong by EC50 (human TLR7), led by results:

Row | EC50 (human TLR7) [nM] | EC50 (human TLR8) [nM] | Compound
13 | 203 | 64 | CCCCNc1nc(N)nc2ccn(Cc3ccc(C(=O)N4C5CNCC4C5)cc3)c(=O)c12 [Compound I-65, 6-(4-(3,6-diazabicyclo[3.1.1]heptane-6-carbonyl)benzyl)-2-amino-4-(butylamino)pyri do[4,3-d]pyrimidin-5(6H)-one]
14 | 80 | 110 | CCC[C@@H](C)Nc1nc(N)nc2ccn(Cc3ccc(CN4CCCC4)cc3Cl)c(=O)c12 [Compound I-152, (R)-2-amino-6-(2-chloro-4-(pyrrolidin-1-ylmethyl)benzyl)-4-(pentan-2-ylamino)pyrido[4,3-d]pyrimidin-5(6H)-one]
15 | 70 | 40 | CCC[C@@H](CCO)Nc1nc(N)nc2ccn(Cc3ccc(CN4CC5(COC5)C4)cc3)c(=O)c12 [Compound I-142, (S)-6-(4-((2-oxa-6-azaspiro[3.3]heptan-6-yl)methyl)benzyl)-2-amino-4-((1-hydroxyhexan-3-yl)amino)pyrido[4,3-d]pyrimidin-5(6H)-one]
16 | 64 | 107 | CCCCNc1nc(N)nc2ccn(Cc3ccc(CN4CCCC4)cc3OC)c(=O)c12 [Compound I-2, 2-amino-4-(butylamino)-6-(2-methoxy-4-(pyrrolidin-1-ylmethyl)benzyl)pyrido[4,3-d]pyrimidin-5(6H)-one]
17 | 54 | 58 | CCC[C@@H](C)Nc1nc(N)nc2ccn(Cc3ccc(C(=O)N4CCN(C)CC4)cc3OC)c(=O)c12 [Compound I-182, (R)-2-amino-6-(2-methoxy-4-(4-methylpiperazine-1-carbonyl)benzyl)-4-(pentan-2-ylamino)pyrido[4,3-d]pyrimidin-5(6H)-one]
18 | 50 | 20 | CCC[C@@H](C)Nc1nc(N)nc2ccn(Cc3ccc(CN(CCO)CCO)cc3)c(=O)c12 [Compound I-141, (R)-2-amino-6-(4-((bis(2-hydroxyethyl)amino)methyl)benzyl)-4-(pentan-2-ylamino)pyrido[4,3-d]pyrimidin-5(6H)-one]
19 | 46 | 53 | CCCCNc1nc(N)nc2ccn(Cc3ccc(C(=O)N4CCN(CCO)CC4)cc3OC)c(=O)c12 [Compound I-120, 2-amino-4-(butylamino)-6-(4-(4-(2-hydroxyethyl)piperazine-1-carbonyl)-2-methoxybenzyl)pyrido[4,3-d]pyrimidin-5(6H)-one]
20 | 30 | 40 | CCC[C@@H](C)Nc1nc(N)nc2ccn(Cc3ccc(CN4CCCC4)cc3OC)c(=O)c12 [Compound I-154, (R)-2-amino-6-(2-methoxy-4-(pyrrolidin-1-ylmethyl)benzyl)-4-(pentan-2-ylamino)pyrido[4,3-d]pyrimidin-5(6H)-one]
